Molecular target: T1, K103NNY181C mutant reverse transcriptase (Human immunodeficiency virus type 1 group M subtype B, UniProt P04585, K690N/Y768C)
T1 construct: mutations that occur in the reverse transcriptase segment of the pol gene
Test: Reverse transcriptase enzymatic assay (PicoGreen), K103N/Y181C mutant RT
Type: biochemical, HIV-1
Details: IC50 mut, K103N/Y181C mutant reverse transcriptase, enzymatic assay of Example 24
Outline: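 PicoGreen fluorescence (ex 485, em 520 nm) quantified product after EDTA stop. Reaction ran 50 min at 37 °C in pH 7.8 Tris/HCl buffer, 1% DMSO, with poly rC/dG15 template-primer (45/4.5 nM), 3.6 μM dGTP, 2.5 nM enzyme; inhibitor 10 μM–0.508 nM final after 15 min room-temperature pre-incubation.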

Compound | IC50
CC(C)(C#Cc1ccc(NC(=O)CSc2nnnn2-c2cc(C(F)(F)F)ccc2Cl)c(Cl)c1)NC(=O)c1cc[n+]([O-])cc1 [Compound 4120] | 17.5 nM
CC(C)c1ccc(-n2nnnc2SCC(=O)Nc2ccc(C#CC(C)(C)C(=O)O)cc2Cl)c(Cl)c1 [Compound 4121] | 33.5 nM
CC(C)(C#Cc1ccc(NC(=O)CSc2nnnn2-c2ccc(C(C)(C)C)cc2Cl)c(Cl)c1F)C(=O)O [Compound 4122] | 15.5 nM
CC(C)(C#Cc1ccc(NC(=O)CSc2nnnn2-c2ccc(C3CC3)cc2Cl)c(Cl)c1)NC(=O)CN1CCCC1 [Compound 4123] | 38 nM
CC(C)(C#Cc1ccc(NC(=O)CSc2nnnn2-c2ccc(C3CC3)cc2Cl)c(Cl)c1)NC(=O)CN1CCNCC1 [Compound 4124] | 27 nM
CC(C)(C#Cc1ccc(NC(=O)CSc2nnnn2-c2ccc(C3CC3)cc2Cl)c(Cl)c1)NC(=O)CN1CCC(O)CC1 [Compound 4125] | 26 nM
CC(C)(C#Cc1ccc(NC(=O)CSc2nnnn2-c2ccc(C3CC3)cc2Cl)c(Cl)c1)NC(=O)CN1CCN(CCn2cccc2)CC1 [Compound 4126] | 78 nM
CC(C)(C#Cc1ccc(NC(=O)CSc2nnnn2-c2ccc(C3CC3)cc2Cl)c(Cl)c1)NC(=O)CNCCCn1ccnc1 [Compound 4127] | 20.5 nM
CC(C)(C#Cc1ccc(NC(=O)CSc2nnnn2-c2ccc(C3CC3)cc2Cl)c(Cl)c1)NCC1CC1 [Compound 4128] | 27 nM
CC(C)(C#Cc1ccc(NC(=O)CSc2nnnn2-c2ccc(C3CC3)cc2Cl)c(Cl)c1)NCc1nccs1 [Compound 4129] | 15.5 nM
CC(C)(C#Cc1ccc(NC(=O)CSc2nnnn2-c2ccc(C3CC3)cc2Cl)c(Cl)c1)NCc1ccccc1O [Compound 4130] | 43 nM
O=C(CSc1nnnn1-c1ccc(C2CC2)cc1Cl)Nc1ccc(C#CCCN2CCCC2)cc1Cl [Compound 4132] | 49.5 nM
C=CC#Cc1ccc(NC(=O)CSc2nnnn2-c2ccc(C3CC3)cc2Cl)c(Cl)c1 [Compound 4133] | 53.5 nM
O=C(CSc1nnnn1-c1ccc(C2CC2)cc1Cl)Nc1ccc(C#CCCN2CCC(O)CC2)cc1Cl [Compound 4134] | 28.5 nM
O=C(CSc1nnnn1-c1ccc(C2CC2)cc1Cl)Nc1ccc(C#CCCN2CCNCC2)cc1Cl [Compound 4135] | 29 nM
CC(C)(N)C#Cc1ccc(NC(=O)CSc2nnnn2-c2cc(C(F)(F)F)ccc2Cl)c(Cl)c1 [Compound 4137] | 88 nM
CN(C)CC(=O)NC(C)(C)C#Cc1ccc(NC(=O)CSc2nnnn2-c2cc(C(F)(F)F)ccc2Cl)c(Cl)c1 [Compound 4138] | 43 nM
CC(C)(C#Cc1ccc(NC(=O)CSc2nnnn2-c2cc(C(F)(F)F)ccc2Cl)c(Cl)c1)NC(=O)c1ncccn1 [Compound 4139] | 20.5 nM
CC(C)(C#Cc1ccc(NC(=O)CSc2nnnn2-c2cc(C(F)(F)F)ccc2Cl)c(Cl)c1)NC(=O)C1CC1 [Compound 4140] | 51 nM
CC(=O)NC(C)(C)C#Cc1ccc(NC(=O)CSc2nnnn2-c2cc(C(F)(F)F)ccc2Cl)c(Cl)c1 [Compound 4141] | 40 nM
CC(C)(C#Cc1ccc(NC(=O)CSc2nnnn2-c2cc(C(F)(F)F)ccc2Cl)c(Cl)c1)OCCN1CCCC1 [Compound 4142] | 50.5 nM

Compound | IC50
CC(C)(C#Cc1ccc(NC(=O)CSc2nnnn2-c2ccc(C3CC3)cc2Cl)c(Cl)c1)C(=O)NCCN1CCCC1 [Compound 4143] | 65 nM
CC(C)(C#Cc1ccc(NC(=O)CSc2nnnn2-c2ccc(C3CC3)cc2Cl)c(Cl)c1)C(=O)NC(C)(C)C(=O)O [Compound 4144] | 81 nM
CN(C)CCCNC(=O)C(C)(C)C#Cc1ccc(NC(=O)CSc2nnnn2-c2ccc(C3CC3)cc2Cl)c(Cl)c1 [Compound 4145] | 48 nM
CC(C)(C#Cc1ccc(NC(=O)CSc2nnnn2-c2ccc(C3CC3)cc2Cl)c(Cl)c1)C(=O)NCC1CCCO1 (stereo not drawn) [Compound 4146] | 37.5 nM
CN(C)CCCC(=O)NC(C)(C)C#Cc1ccc(NC(=O)CSc2nnnn2-c2cc(C(F)(F)F)ccc2Cl)c(Cl)c1 [Compound 4147] | 52 nM
CC(C)(C#Cc1ccc(NC(=O)CSc2nnnn2-c2ccc(C3CC3)cc2Cl)c(Cl)c1)C(=O)NCc1cc[n+]([O-])cc1 [Compound 4148] | 11 nM
CC(C)(C#Cc1ccc(NC(=O)CSc2nnnn2-c2ccc(C3CC3)cc2Cl)c(Cl)c1)C(=O)N1CCC(C(=O)O)CC1 [Compound 4149] | 16.5 nM
CC(C)(N)C#Cc1ccc(NC(=O)CSc2nnnn2-c2ccc(C3CC3)cc2Cl)c(Cl)c1F [Compound 4151] | 22.5 nM
CC(C)(C#Cc1ccc(NC(=O)CSc2nnnn2-c2ccc(C3CC3)cc2Cl)c(Cl)c1)C(=O)NCCCN1CCCC1=O [Compound 4152] | 36.5 nM
CN(C)c1ccc(CNC(=O)C(C)(C)C#Cc2ccc(NC(=O)CSc3nnnn3-c3ccc(C4CC4)cc3Cl)c(Cl)c2)cc1 [Compound 4153] | 127 nM
CC(C)(C#Cc1ccc(NC(=O)CSc2nnnn2-c2ccc(C3CC3)cc2Cl)c(Cl)c1)NC(=O)CN1CCC(C(=O)O)CC1 [Compound 4154] | 10.5 nM
CN(C)CC(=O)NC(C)(C)C#Cc1ccc(NC(=O)CSc2nnnn2-c2ccc(C3CC3)cc2Cl)c(Cl)c1F [Compound 4155] | 9.15 nM
CN(C)CCCC(=O)NC(C)(C)C#Cc1ccc(NC(=O)CSc2nnnn2-c2ccc(C3CC3)cc2Cl)c(Cl)c1F [Compound 4156] | 36.5 nM
CC(C)(C#Cc1ccc(NC(=O)CSc2nnnn2-c2ccc(C3CC3)cc2Cl)c(Cl)c1F)NC(=O)c1cc[n+]([O-])cc1 [Compound 4157] | 5.95 nM
CC(C)(C#Cc1ccc(NC(=O)CSc2nnnn2-c2cc(C3CC3)cc(C(F)(F)F)c2Cl)c(Cl)c1)C(=O)O [Compound 4159] | 136 nM
CC(C)(C#Cc1ccc(NC(=O)CSc2nnnn2-c2cc(C(F)(F)F)ccc2Cl)c(Cl)c1F)C(=O)NCCN1CCCC1 [Compound 4160] | 114 nM
CC(C)(C#Cc1ccc(NC(=O)CSc2nnnn2-c2cccc(Cl)c2Cl)c(Cl)c1)C(=O)O [Compound 4161] | 224 nM
CC(C)(C#Cc1ccc(NC(=O)CSc2nnnn2-c2cc(Cl)ccc2Cl)c(Cl)c1)C(=O)O [Compound 4162] | 99 nM
CC(C)(N)C#Cc1ccc(NC(=O)CSc2nnnn2-c2cc(C(F)(F)F)ccc2Cl)c(Cl)c1F [Compound 4163] | 83 nM
CC(C)(C#Cc1ccc(NC(=O)CSc2nnnn2-c2cc(C(F)(F)F)ccc2Cl)c(Cl)c1F)NC(=O)c1cc[n+]([O-])cc1 [Compound 4164] | 18.5 nM
CC(C)(C#Cc1ccc(NC(=O)CSc2nnnn2-c2ccc(C3CC3)cc2Cl)c(Cl)c1F)OCCOc1ccncc1 [Compound 4165] | 67.5 nM

Compound | IC50
CC(C)(C#Cc1ccc(NC(=O)CSc2nnnn2-c2cc(C(F)(F)F)ccc2Cl)c(Cl)c1F)OCCOc1ccncc1 [Compound 4166] | 126 nM
CC(C)(C#Cc1ccc(NC(=O)CSc2nnnn2-c2ccc(C3CC3)cc2Cl)c(Cl)c1)OCCOc1ccncc1 [Compound 4167] | 39.5 nM
CC(C)(C#Cc1ccc(NC(=O)CSc2nnnn2-c2cc(C(F)(F)F)ccc2Cl)c(Cl)c1)OCCOc1ccncc1 [Compound 4168] | 108 nM
CC(C)(C#Cc1ccc(NC(=O)CSc2nnnn2-c2ccc(C3CC3)cc2Cl)c(Cl)c1F)OCCO [Compound 4169] | 9.2 nM
CN(C)CCCC(=O)NC(C)(C)C#Cc1ccc(NC(=O)CSc2nnnn2-c2cc(C(F)(F)F)ccc2Cl)c(Cl)c1F [Compound 4170] | 33.5 nM
CN(C)CC(=O)NC(C)(C)C#Cc1ccc(NC(=O)CSc2nnnn2-c2cc(C(F)(F)F)ccc2Cl)c(Cl)c1F [Compound 4171] | 31.5 nM
CC(C)(C#Cc1ccc(NC(=O)CSc2nnnn2-c2ccc(C3(C)CC3)cc2Cl)c(Cl)c1)C(=O)O [Compound 4173] | 51 nM
CC(C)(C#Cc1ccc(NC(=O)CSc2nnnn2-c2cc(C3CC3)ccc2Cl)c(Cl)c1)C(=O)O [Compound 4174] | 34 nM
CC(C)(C#Cc1ccc(NC(=O)CSc2nnnn2-c2ccc(C3CC3)cc2Cl)c(Cl)c1F)OCCN1CCCC1 [Compound 4175] | 67 nM
CC(C)(C#Cc1ccc(NC(=O)CSc2nnnn2-c2ccc(C3CC3)cc2Cl)c(Cl)c1F)OCCN1CCNCC1 [Compound 4176] | 108 nM
Cc1c(NC(=O)CSc2nnnn2-c2ccc(C3CC3)cc2Cl)ccc(C#CC(C)(C)NC(=O)c2cc[n+]([O-])cc2)c1F [Compound 4178] | 26 nM
CC(C)(C#Cc1ccc(NC(=O)CSc2nnnn2-c2cccc(C3CC3)c2Cl)c(Cl)c1)C(=O)O [Compound 4179] | 467 nM
Cc1cc(C#CC(C)(C)NC(=O)c2cc[n+]([O-])cc2)ccc1NC(=O)CSc1nnnn1-c1ccc(C2CC2)cc1Cl [Compound 4180] | 71 nM
CC(C)(C#Cc1ccc(NC(=O)CSc2nnnn2-c2ccc(C3CC3)cc2Cl)c(Cl)c1)OCCN1CCCC1=O [Compound 4182] | 58.5 nM
CC(C)(C#Cc1ccc(NC(=O)CSc2nnnn2-c2ccc(C3CC3)cc2Cl)c(Cl)c1)C(=O)NS(=O)(=O)c1ccccc1 [Compound 4183] | 61 nM
CC(C)(C#Cc1ccc(NC(=O)CSc2nnnn2-c2ccc(C3CC3)cc2Cl)c(Cl)c1)C(=O)NS(=O)(=O)C1CC1 [Compound 4184] | 30.5 nM
CN(C)S(=O)(=O)NC(=O)C(C)(C)C#Cc1ccc(NC(=O)CSc2nnnn2-c2ccc(C3CC3)cc2Cl)c(Cl)c1 [Compound 4185] | 55.5 nM
CC(C)(C#Cc1ccc(NC(=O)CSc2nnnn2-c2ccc(C3CC3)cc2Cl)c(Cl)c1)NCc1cc[n+]([O-])cc1 [Compound 4186] | 12 nM
CC(C)Oc1ccc(Cl)c(-n2nnnc2SCC(=O)Nc2ccc(C#CC(C)(C)C(=O)O)cc2Cl)c1 [Compound 4187] | 61.5 nM
CC(C)(C#Cc1ccc(NC(=O)CSc2nnnn2-c2ccc(C3CC3)cc2Cl)c(Cl)c1)NC(=O)CNc1ccncc1 [Compound 4188] | 24 nM
CC(C)(C#Cc1ccc(NC(=O)CSc2nnnn2-c2cc(Cl)ccc2Cl)c(Cl)c1)NC(=O)c1cc[n+]([O-])cc1 [Compound 4189] | 19.5 nM
